Patent US20260274891A1, “¿ OPIOID RECEPTOR AGONIST AND USE THEREOF” (CHENGDU AODA BIOTECHNOLOGY CO., LTD., priority 2023, published 2026)
Read-outs that look alike come from different tables or passages of the source. Bridge positions count the residues as written; N and C are the ends. Square brackets hold non-standard residues; d marks the D form. Side chains are listed from the residue outwards. Peptide text beside a SMILES is read from it. I, II: the chains in the order shown. * marks the point of attachment. X12 = CCOc1ccc(C[C@@H](NC(=O)[C@H](N)Cc2ccccc2)C(=O)*)cc1; Piperidin1yl(4-NH2,4-COOH) = NC1(C(=O)O)CCN(*)CC1; Piperidinyl(4-NH2,4-CONH2) = NC(=O)C1(N)CCN(*)CC1; X10 = NCCCC[C@@H](NC(=O)C1(N)CCN(*)CC1)C(=O)O; X1 = NCCCC[C@@H](NC(=O)C1(N)CCN(*)CC1)C(N)=O; X4 = NCCCC[C@H](NC(=O)C1(N)CCN(*)CC1)C(=O)O; dAla(cPr) = N[C@H](CC1CC1)C(=O)O; Api = NC1(C(=O)O)CCNCC1; iPr = CC(C)*

Molecular target: T1, human κ opioid receptor (OPRK1) (Homo sapiens, UniProt P41145)
T1 construct: expressed in transfected cells; host or cells: CHO-K1
Test: Determination of activities of κ receptor agonists: inhibition of forskolin-stimulated cAMP release (HTRF) in stably transfected CHO-K1 cells
Type: cell-based
Conditions: for Relative Activity %: relative to Difelikefalin = 100.0
Description: Gi-coupled human κ opioid receptor (OPRK1), upon stimulation with its specific opioid receptor agonists, can inhibit the intracellular adenylate cyclase pathway, and decrease cAMP levels. Forskolin can stimulate cAMP release in cell lines highly expressing opioid receptors. By stimulating cell lines stably transfected with opioid receptors, the inhibitory effect of a test compound on forskolin-stimulated cAMP release can be measured to determine the activity of the compound. The relative light units (RLU) from the cells after stimulation with different doses were measured via the homogeneous time-resolved fluorescence technique (HTRF), and the EC50 value of the agonist was subsequently calculated. This activity determination method is a currently commonly used method for determining the activities of opioid receptor agonists at home and abroad.
A CHO-K1 cell line stably expressing opioid receptors was used. Stably transfected cells were stimulated with various concentrations of agonists (under the stimulation of a certain concentration of forskolin). The relative light units from the cells after stimulation with different doses were measured, from which the EC50 value of the agonist was subsequently obtained by calculation.

T1 sequence (P41145 whole entry): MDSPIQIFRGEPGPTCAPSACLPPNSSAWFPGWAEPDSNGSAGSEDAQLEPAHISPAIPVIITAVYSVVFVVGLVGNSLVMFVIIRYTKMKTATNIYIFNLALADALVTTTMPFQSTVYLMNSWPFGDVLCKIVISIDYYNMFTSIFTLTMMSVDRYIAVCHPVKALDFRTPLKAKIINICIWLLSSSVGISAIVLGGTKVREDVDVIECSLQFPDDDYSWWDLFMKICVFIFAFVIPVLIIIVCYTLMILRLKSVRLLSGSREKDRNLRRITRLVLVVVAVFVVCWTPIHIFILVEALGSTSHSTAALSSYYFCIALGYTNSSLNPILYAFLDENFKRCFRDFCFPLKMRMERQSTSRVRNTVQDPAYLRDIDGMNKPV

Row | SMILES | EC50 [nM] | Relative Activity % [%] | EC50 (CHO-K1 cell line stably expressing opioid receptors, forskolin-stimulated cAMP, HTRF, read-out: EC50) [nM]
1 | CCOc1ccc(C[C@@H](NC(=O)[C@H](N)Cc2ccccc2)C(=O)N[C@H](CC(C)C)C(=O)N[C@H](CCCCN)C(=O)N2CCC(N)(C(=O)NCC(=O)NCC(=O)N[C@@H](CCCCN)C(N)=O)CC2)cc1 [Compound 51, D-Phe-D-Tyr(Et)-D-Leu-D-Lys-4-aminopiperidine-4-carboxamide-Gly-Gly-Lys-NH2] (I: H-[Api]GGK-NH2 / II: H-[dF][dY](Et)[dL][dK]; amide I:1-II:C; N-terminus assumed) | 0.0477 | 1273.0 | 
2 | CC(C)C[C@@H](NC(=O)[C@@H](Cc1ccc(OC(C)C)cc1)NC(=O)[C@H](N)Cc1ccccc1)C(=O)N[C@H](CCCCN)C(=O)N1CCC(N)(C(=O)O)CC1 [Compound 98, D-Phe-D-Tyr(Ipr)-D-Leu-D-Lys-4-aminopiperidine-4-carboxamide-OH] (H-[dF][dY](iPr)[dL][dK]-{Piperidin1yl(4-NH2,4-COOH)}; N-terminus assumed) | 0.145 | 418.2 | 
3 | CCOc1ccc(C[C@@H](NC(=O)[C@H](N)Cc2ccccc2)C(=O)N[C@H](CC(C)C)C(=O)N[C@H](CCCCN)C(=O)N2CCC(N)(C(N)=O)CC2)cc1 [Compound 1, D-Phe-D-Tyr(Et)-D-Leu-D-Lys-4-aminopiperidine-4-carboxylicacid-NH2] (H-[dF][dY](Et)[dL][dK]-{Piperidinyl(4-NH2,4-CONH2)}; N-terminus assumed) | 0.116 | 524.8 | 
4 | CCOc1ccc(C[C@@H](NC(=O)[C@H](N)Cc2ccccc2)C(=O)N[C@H](CC(C)C)C(=O)N[C@H](CCCCN)C(=O)N2CCC(N)(C(=O)N[C@H](CCCCN)C(=O)O)CC2)cc1 [Compound 16, D-Phe-D-Tyr(Et)-D-Leu-D-Lys-4-aminopiperidine-4-carboxamide-D-Lys-OH] (H-[dF][dY](Et)[dL][dK]-X10; N-terminus assumed) | 0.0431 | 1408.8 | 
5 | CCc1ccc(C[C@@H](NC(=O)[C@H](N)Cc2ccccc2)C(=O)N[C@H](CC(C)C)C(=O)N[C@H](CCCCN)C(=O)N2CCC(N)(C(=O)N[C@@H](CCCCN)C(=O)O)CC2)cc1 [Compound 132, D-Phe-D-Phe(4-Et)-D-Leu-D-Lys-4-aminopiperidine-4-carboxamide-Lys-OH] | 0.13 | 465.6 | 
6 | CCOc1ccc(C[C@@H](NC(=O)[C@H](N)Cc2ccccc2)C(=O)N[C@H](CC(C)C)C(=O)N[C@H](CCCCN)C(=O)N2CCC(N)(C(=O)N[C@H](CCCCN)C(=O)N[C@H](CCCCN)C(=O)N[C@H](CCCCN)C(=O)N[C@H](CCCCN)C(N)=O)CC2)cc1 [Compound 21, D-Phe-D-Tyr(Et)-D-Leu-D-Lys-4-aminopiperidine-4-carboxamide-D-Lys-D-Lys-D-Lys-D-Lys -NH2] (H-[Api]([dK-dL-X12])[dK][dK][dK][dK]-NH2; N-terminus assumed) | 0.0501 | 1212.0 | 
7 | CC(C)C[C@@H](NC(=O)[C@@H](Cc1ccc(F)cc1)NC(=O)[C@H](N)Cc1ccccc1)C(=O)N[C@H](CCCCN)C(=O)N1CCC(N)(C(=O)O)CC1 [Compound 104, D-Phe-D-Phe(4-F)-D-Leu-D-Lys-4-aminopiperidine-4-carboxamide-OH] | 0.215 | 281.9 | 
8 | CCc1ccc(C[C@@H](NC(=O)[C@H](N)Cc2ccccc2)C(=O)N[C@H](CC(C)C)C(=O)N[C@H](CCCCN)C(=O)N2CCC(N)(C(=O)N[C@H](CCCCN)C(N)=O)CC2)cc1 [Compound 133, D-Phe-D-Phe(4-Et)-D-Leu-D-Lys-4-aminopiperidine-4-carboxamide-D-Lys-NH2] | 0.132 | 461.7 | 
9 | CCOc1ccc(C[C@@H](NC(=O)[C@H](N)Cc2ccccc2)C(=O)N[C@H](CC2CC2)C(=O)N[C@H](CCCCN)C(=O)N2CCC(N)(C(=O)O)CC2)cc1 [Compound 68, D-Phe-D-Tyr(Et)-D-cyclopropylalanine-D-Lys-4-aminopiperidine-4-carboxamide-OH] (H-[dF][dY](Et)[dAla(cPr)][dK]-{Piperidin1yl(4-NH2,4-COOH)}; N-terminus assumed) |  | 483.4 | 0.126
10 | CC(C)C[C@@H](NC(=O)[C@@H](Cc1ccc(Cl)cc1)NC(=O)[C@H](N)Cc1ccccc1)C(=O)N[C@H](CCCCN)C(=O)N1CCC(N)(C(=O)N[C@@H](CCCCN)C(=O)O)CC1 [Compound 112, D-Phe-D-Phe(4-C1)-D-Leu-D-Lys-4-aminopiperidine-4-carboxamide-Lys-OH] | 0.0508 | 1195.3 | 
11 | CCOc1ccc(C[C@@H](NC(=O)[C@H](N)Cc2ccccc2)C(=O)N[C@H](CC(C)C)C(=O)N[C@H](CCCCN)C(=O)N2CCC(N)(C(=O)NCC(=O)NCC(=O)NCC(=O)N[C@H](CCCCN)C(=O)O)CC2)cc1 [Compound 58, D-Phe-D-Tyr(Et)-D-Leu-D-Lys-4-aminopiperidine-4-carboxamide-Gly-Gly-Gly-D-Lys-OH] (H-[Api]([dK-dL-X12])GGG[dK]-OH; N-terminus assumed) | 0.0515 | 1179.0 | 
12 | CCOc1ccc(C[C@@H](NC(=O)[C@H](N)Cc2ccccc2)C(=O)N[C@H](CC(C)C)C(=O)N[C@H](CCCCN)C(=O)N2CCC(N)(C(=O)N[C@H](CCCCN)C(=O)N[C@H](CCCCN)C(=O)N[C@H](CCCCN)C(N)=O)CC2)cc1 [Compound 19, D-Phe-D-Tyr(Et)-D-Leu-D-Lys-4-aminopiperidine-4-carboxamide-D-Lys-D-Lys-D-Lys-NH2] (I: H-[Api][dK][dK][dK]-NH2 / II: H-[dF][dY](Et)[dL][dK]; amide I:1-II:C; N-terminus assumed) | 0.0479 | 1267.6 | 
13 | CC(C)C[C@@H](NC(=O)[C@@H](Cc1ccc(OC(C)C)cc1)NC(=O)[C@H](N)Cc1ccccc1)C(=O)N[C@H](CCCCN)C(=O)N1CCC(N)(C(=O)N[C@@H](CCCCN)C(=O)O)CC1 [Compound 100, D-Phe-D-Tyr(Ipr)-D-Leu-D-Lys-4-aminopiperidine-4-carboxamide-Lys-OH] (H-[dF][dY](iPr)[dL][dK]-X4; N-terminus assumed) | 0.0716 | 848.0 | 
14 | CCOc1ccc(C[C@@H](NC(=O)[C@H](N)Cc2ccccc2)C(=O)N[C@H](CC2CC2)C(=O)N[C@H](CCCCN)C(=O)N2CCC(N)(C(=O)N[C@H](CCCCN)C(N)=O)CC2)cc1 [Compound 71, D-Phe-D-Tyr(Et)-D-cyclopropylalanine-D-Lys-4-aminopiperidine-4-carboxamide-D-Lys-NH2] (H-[dF][dY](Et)[dAla(cPr)][dK]-X1; N-terminus assumed) | 0.041 | 1481.0 | 
15 | CC(C)C[C@@H](NC(=O)[C@@H](Cc1ccc(I)cc1)NC(=O)[C@H](N)Cc1ccccc1)C(=O)N[C@H](CCCCN)C(=O)N1CCC(N)(C(=O)N[C@@H](CCCCN)C(=O)O)CC1 [Compound 124, D-Phe-D-Phe(4-I)-D-Leu-D-Lys-4-aminopiperidine-4-carboxamide-Lys-OH] | 0.0558 | 1088.2 | 
16 | CC(C)C[C@@H](NC(=O)[C@@H](Cc1ccc(Cl)cc1)NC(=O)[C@H](N)Cc1ccccc1)C(=O)N[C@H](CCCCN)C(=O)N1CCC(N)(C(=O)O)CC1 [Compound 110, D-Phe-D-Phe(4-C1)-D-Leu-D-Lys-4-aminopiperidine-4-carboxamide-OH] | 0.149 | 408.6 | 
17 | CCOc1ccc(C[C@@H](NC(=O)[C@H](N)Cc2ccccc2)C(=O)N[C@H](CC(C)C)C(=O)N[C@H](CCCCN)C(=O)N2CCC(N)(C(=O)NCC(=O)NCC(=O)NCC(=O)N[C@@H](CCCCN)C(=O)O)CC2)cc1 [Compound 56, D-Phe-D-Tyr(Et)-D-Leu-D-Lys-4-aminopiperidine-4-carboxamide-Gly-Gly-Gly-Lys-OH] (H-[Api]([dK-dL-X12])GGGK-OH; N-terminus assumed) | 0.0506 | 1200.0 | 
18 | Cc1ccc(C[C@@H](NC(=O)[C@H](N)Cc2ccccc2)C(=O)N[C@H](CC(C)C)C(=O)N[C@H](CCCCN)C(=O)N2CCC(N)(C(=O)N[C@@H](CCCCN)C(N)=O)CC2)cc1 [Compound 127, D-Phe-D-Phe(4-Me)-D-Leu-D-Lys-4-aminopiperidine-4-carboxamide-Lys-NH2] | 0.157 | 385.8 | 
19 | CC(C)C[C@@H](NC(=O)[C@@H](Cc1ccc(C(C)C)cc1)NC(=O)[C@H](N)Cc1ccccc1)C(=O)N[C@H](CCCCN)C(=O)N1CCC(N)(C(=O)N[C@H](CCCCN)C(N)=O)CC1 [Compound 137, D-Phe-D-Phe(4-Ipr)-D-Leu-D-Lys-4-aminopiperidine-4-carboxamide-D-Lys-NH2] | 0.143 | 423.1 | 
20 | CC(C)C[C@@H](NC(=O)[C@@H](Cc1ccc(I)cc1)NC(=O)[C@H](N)Cc1ccccc1)C(=O)N[C@H](CCCCN)C(=O)N1CCC(N)(C(=O)O)CC1 [Compound 122, D-Phe-D-Phe(4-I)-D-Leu-D-Lys-4-aminopiperidine-4-carboxamide-OH] | 0.12 | 505.6 | 
21 | CC(C)C[C@@H](NC(=O)[C@@H](Cc1ccc(Cl)cc1)NC(=O)[C@H](N)Cc1ccccc1)C(=O)N[C@H](CCCCN)C(=O)N1CCC(N)(C(=O)N[C@@H](CCCCN)C(N)=O)CC1 [Compound 111, D-Phe-D-Phe(4-C1)-D-Leu-D-Lys-4-aminopiperidine-4-carboxamide-Lys-NH2] | 0.0521 | 1165.5 | 
